# Experimental data from ChEMBL document CHEMBL1201862, “PubChem BioAssay data set” (2004).
#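 Cultured in 96-well plates, cells were exposed to test compound for 48 hours across five concentrations. GI50 = concentration required for 50% inhibition of growth.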 The source made the active and inactive calls. No stated cut-off is given here; in the data, active = GI50 up to about 1.1 µM and inactive = higher.
# Experiments:
# Test in all cases: NCI-60 cell line screen, 48 h
# RPMI-8226 = system: RPMI-8226
# SK-OV-3 = system: SK-OV-3
# CCRF-CEM = system: CCRF-CEM
# U-251 = system: U-251
# HCC 2998 = system: HCC 2998
# NCI-H460 = system: NCI-H460
# BT-549 = system: BT-549
# T47D = system: T47D
# A498 = system: A498
# KM12 = system: KM12
# TK-10 = system: TK-10
# NCI-H522 = system: NCI-H522
# DU-145 = system: DU-145
# UO-31 = system: UO-31
# HCT-116 = system: HCT-116
# HT-29 = system: HT-29
# Hs-578T = system: Hs-578T
# UACC-257 = system: UACC-257
# UACC-62 = system: UACC-62
# NCI-H23 = system: NCI-H23
# MDA-N = system: MDA-N
# MDA-MB-435 = system: MDA-MB-435
# SF-539 = system: SF-539
# MDA-MB-231 = system: MDA-MB-231
# SNB-75 = system: SNB-75
# LOX IMVI = system: LOX IMVI
# M14 = system: M14
# HL-60 = system: HL-60
# SK-MEL-2 = system: SK-MEL-2
# RXF 393 = system: RXF 393
# OVCAR-3 = system: OVCAR-3
# MOLT-4 = system: MOLT-4
# OVCAR-5 = system: OVCAR-5
# MCF7 = system: MCF7
# SNB-19 = system: SNB-19
# HCT-15 = system: HCT-15
# Malme-3M = system: Malme-3M
# HOP-62 = system: HOP-62
# SF-268 = system: SF-268
# NCI-H226 = system: NCI-H226
# EKVX = system: EKVX
# SK-MEL-28 = system: SK-MEL-28
# K562 = system: K562
# ACHN = system: ACHN
# SR = system: SR
# COLO 205 = system: COLO 205
# SN12C = system: SN12C
# 786-0 = system: 786-0
# A549 = system: A549
# CAKI-1 = system: CAKI-1
# HOP-92 = system: HOP-92
# OVCAR-4 = system: OVCAR-4
# SK-MEL-5 = system: SK-MEL-5
# SW-620 = system: SW-620
# PC-3 = system: PC-3
# OVCAR-8 = system: OVCAR-8
# NCI/ADR-RES = system: NCI/ADR-RES
# SF-295 = system: SF-295
compound,measurement,setting,value
CCOC(=O)NC(Nc1ccc(Cl)cn1)(C(F)(F)F)C(F)(F)F,GI50,RPMI-8226,> 100 µM (inactive)
same,GI50,SK-OV-3,> 100 µM (inactive)
same,GI50,CCRF-CEM,> 100 µM (inactive)
same,GI50,U-251,> 100 µM (inactive)
same,GI50,HCC 2998,> 100 µM (inactive)
same,GI50,NCI-H460,> 100 µM (inactive)
same,GI50,BT-549,> 100 µM (inactive)
same,GI50,T47D,> 100 µM (inactive)
same,GI50,A498,> 100 µM (inactive)
same,GI50,KM12,> 100 µM (inactive)
same,GI50,TK-10,> 100 µM (inactive)
same,GI50,NCI-H522,> 100 µM (inactive)
same,GI50,DU-145,> 100 µM (inactive)
same,GI50,UO-31,41.4 µM (inactive)
same,GI50,HCT-116,> 100 µM (inactive)
same,GI50,HT-29,> 100 µM (inactive)
same,GI50,Hs-578T,> 100 µM (inactive)
same,GI50,UACC-257,> 100 µM (inactive)
same,GI50,UACC-62,> 100 µM (inactive)
same,GI50,NCI-H23,> 100 µM (inactive)
same,GI50,MDA-N,> 100 µM (inactive)
same,GI50,MDA-MB-435,> 100 µM (inactive)
same,GI50,SF-539,> 100 µM (inactive)
same,GI50,MDA-MB-231,> 100 µM (inactive)
same,GI50,SNB-75,> 100 µM (inactive)
same,GI50,LOX IMVI,> 100 µM (inactive)
same,GI50,M14,> 100 µM (inactive)
same,GI50,HL-60,> 100 µM (inactive)
same,GI50,SK-MEL-2,> 100 µM (inactive)
same,GI50,RXF 393,97.5 µM (inactive)
same,GI50,OVCAR-3,> 100 µM (inactive)
same,GI50,MOLT-4,> 100 µM (inactive)
same,GI50,OVCAR-5,> 100 µM (inactive)
same,GI50,MCF7,> 100 µM (inactive)
same,GI50,SNB-19,> 100 µM (inactive)
same,GI50,HCT-15,> 100 µM
same,GI50,Malme-3M,> 100 µM (inactive)
same,GI50,HOP-62,> 100 µM (inactive)
same,GI50,SF-268,> 100 µM (inactive)
same,GI50,NCI-H226,> 100 µM (inactive)
same,GI50,EKVX,> 100 µM (inactive)
same,GI50,SK-MEL-28,> 100 µM (inactive)
same,GI50,K562,> 100 µM (inactive)
same,GI50,ACHN,> 100 µM (inactive)
same,GI50,SR,> 100 µM (inactive)
COc1ccc(/C(CCl)=C(\Nc2ccccc2)c2ccc(OC)c(OC)c2)cc1OC,GI50,RPMI-8226,68.2 µM (inactive)
same,GI50,SK-OV-3,> 100 µM (inactive)
same,GI50,CCRF-CEM,97.9 µM (inactive)
same,GI50,U-251,> 100 µM (inactive)
same,GI50,COLO 205,> 100 µM (inactive)
same,GI50,HCC 2998,> 100 µM (inactive)
same,GI50,NCI-H460,82.6 µM (inactive)
same,GI50,BT-549,> 100 µM (inactive)
same,GI50,T47D,27.7 µM (inactive)
same,GI50,A498,> 100 µM (inactive)
same,GI50,KM12,> 100 µM (inactive)
same,GI50,SN12C,> 100 µM (inactive)
same,GI50,TK-10,> 100 µM (inactive)
same,GI50,786-0,> 100 µM (inactive)
same,GI50,NCI-H522,94 µM (inactive)
same,GI50,A549,85.7 µM (inactive)
same,GI50,DU-145,> 100 µM (inactive)
same,GI50,CAKI-1,> 100 µM (inactive)
same,GI50,UO-31,46.5 µM (inactive)
same,GI50,HCT-116,27.6 µM (inactive)
same,GI50,HT-29,> 100 µM (inactive)
same,GI50,HOP-92,55.1 µM (inactive)
same,GI50,Hs-578T,> 100 µM (inactive)
same,GI50,UACC-257,> 100 µM (inactive)
same,GI50,UACC-62,> 100 µM (inactive)
same,GI50,NCI-H23,49.3 µM (inactive)
same,GI50,MDA-N,> 100 µM (inactive)
same,GI50,MDA-MB-435,> 100 µM (inactive)
same,GI50,SF-539,> 100 µM (inactive)
same,GI50,MDA-MB-231,93.1 µM (inactive)
same,GI50,SNB-75,> 100 µM (inactive)
same,GI50,LOX IMVI,> 100 µM (inactive)
same,GI50,M14,> 100 µM (inactive)
same,GI50,OVCAR-4,75.5 µM (inactive)
same,GI50,HL-60,27.2 µM (inactive)
same,GI50,SK-MEL-2,> 100 µM (inactive)
same,GI50,RXF 393,36.1 µM (inactive)
same,GI50,OVCAR-3,> 100 µM (inactive)
same,GI50,MOLT-4,28.6 µM (inactive)
same,GI50,OVCAR-5,> 100 µM (inactive)
same,GI50,MCF7,> 100 µM (inactive)
same,GI50,SNB-19,> 100 µM (inactive)
same,GI50,HCT-15,> 100 µM
same,GI50,Malme-3M,> 100 µM (inactive)
same,GI50,SK-MEL-5,71.9 µM (inactive)
same,GI50,SW-620,> 100 µM (inactive)
same,GI50,HOP-62,> 100 µM (inactive)
same,GI50,PC-3,65 µM (inactive)
same,GI50,SF-268,> 100 µM (inactive)
same,GI50,NCI-H226,68.9 µM (inactive)
same,GI50,EKVX,> 100 µM (inactive)
same,GI50,OVCAR-8,> 100 µM (inactive)
same,GI50,SK-MEL-28,> 100 µM (inactive)
same,GI50,NCI/ADR-RES,> 100 µM (inactive)
same,GI50,K562,58.3 µM (inactive)
same,GI50,ACHN,45.3 µM (inactive)
same,GI50,SF-295,78 µM (inactive)
